Assay results published in patent US20200163984A1, “USE OF ISOVALERYL SPIRAMYCIN I, II AND/OR III IN MANUFACTURING MEDICAMENT FOR TREATING AND/OR PREVENTING TUMOR, AND MEDICAMENT” (SHENYANG FUYANG PHARMACEUTICAL TECHNOLOGY CO., LTD., priority 2017, published 2020).

Columns and labels:
[1] = tested on: transplanted tumor of human hepatoma cell HepG-2; assay: HepG-2 transplanted tumor in nude mice; details: for Tumor Volume (mm3) (d 1): d1
Procedure: (§1) Then cell concentration was adjusted to 1×10^7/ml with matrigel, then each nude mouse was inoculated subcutaneously with 0.2 ml of cells at its right armpit and recorded as the first day of inoculation. When the tumor grows to be greater than or equal to 100 mm^3, the mice were randomly divided into 11 groups with 6 mice in each group: a model group, a cyclophosphamide group, isovaleryl spiramycin I groups with doses of 25, 50 and 100 mg/kg, isovaleryl spiramycin II groups with doses of 25, 50 and 100 mg/kg, and isovaleryl spiramycin III groups with doses of 25, 50 and 100 mg/kg. Each group was continuously administered intragastrically for 30 days with a dose of 20 ml/kg. The mice were sacrificed the next day after drug withdrawal and the indicators were tested. The long diameter and short diameter of the tumor, and the body weight of each mouse were recorded every 3 days from drug administration to nude mouse sacrifice.
(§2) The body weight of the nude mice and the long diameter (a) and short diameter (b) of the transplanted tumor were measured every 3 days, and the tumor volume (v), relative tumor volume (RTV) and relative tumor proliferation rate (T/C) are calculated respectively according to the following formulas, wherein V=a×b^2/2; RTV=V/V0 (V0 is the tumor volume before administration, V is the tumor volume before sacrifice), and T/C (%)=treatment group RTV/model control group RTV×100%.
(§3) Each mouse was weighed and sacrificed. After the tumor was completely stripped off from the body of the mouse, the non-tumor tissues such as blood stains and fat were removed to weigh the tumor and calculate the tumor growth inhibition rate. The average tumor weight of each group of mice is used as an indicator of efficacy. Tumor growth inhibition rate (%)=(1−the average tumor weight of the treatment group/the average tumor weight of the model group)×100%.

[2] = tested on: transplanted tumor of human thyroid cancer cell TPC-1; assay: TPC-1 transplanted tumor in nude mice; details: for Tumor Volume (mm3) (d30): d 30
Procedure: as §1, with “group:” for “group: a model group, a cyclophosphamide group,”
as §2, §3

[3] = HepG-2, high dose (100 mg/kg in method) i.g. 30 days
[4] = HepG-2, low dose (25 mg/kg in method) i.g. 30 days
[5] = HepG-2, medium dose (50 mg/kg in method) i.g. 30 days
[6] = TPC-1, high dose (100 mg/kg in method) i.g. 30 days
[7] = TPC-1, low dose (25 mg/kg in method) i.g. 30 days
[8] = TPC-1, medium dose (50 mg/kg in method) i.g. 30 days

**Q.** `CO[C@@H]1[C@@H](O[C@@H]2O[C@H](C)[C@@H](O[C@H]3C[C@@](C)(O)[C@@H](OC(=O)CC(C)C)[C@H](C)O3)[C@H](N(C)C)[C@H]2O)[C@@H](CC=O)C[C@@H](C)[C@@H](O[C@H]2CC[C@H](N(C)C)[C@@H](C)O2)/C=C/C=C/C[C@@H](C)OC(=O)C[C@H]1O` [Isovaleryl spiramycin I, isovaleryl spiramycin I] was tested. Which “Relative Tumor Proliferation Rate (T/C)” value [1, 3] did it give?
**A.** 27.49%

**Q.** What about the “tumor growth inhibition rate” value [1, 3] of the same compound?
**A.** 68.22%

**Q.** And the “Relative Tumor Proliferation Rate (T/C)” value [1, 4]?
**A.** 65.03%

**Q.** And the “tumor growth inhibition rate” value [1, 4]?
**A.** 24.43%

**Q.** And the “tumor volume and relative tumor volume compared with the model group” value ([1]; HepG-2, low, medium and high doses, P<0.05)?
**A.** significantly lower

**Q.** What about the “Relative Tumor Proliferation Rate (T/C)” value [1, 5] of the same compound?
**A.** 42.12%

**Q.** What about the “tumor growth inhibition rate” value [1, 5] of the same compound?
**A.** 57.93%

**Q.** What about the “Inhibition Rate (%)” value ([1]; HepG-2 nude mice, 25 mg/kg) of the same compound?
**A.** 24.43%

**Q.** And the “Relative Tumor Proliferation Rate (T/C)” value ([1]; HepG-2 nude mice, 25 mg/kg)?
**A.** 65.03%

**Q.** And the “Relative Tumor Volume (RTV)” value ([1]; HepG-2 nude mice, 25 mg/kg)?
**A.** 10.89 ± 2.67

**Q.** And the “Tumor Weight” value ([1]; HepG-2 nude mice, 25 mg/kg)?
**A.** 1.84 ± 0.23 g

**Q.** And the “Tumor Volume (mm3) (d 1)” value ([1]; HepG-2 nude mice, 25 mg/kg)?
**A.** 114.02 ± 11.68 mm3

**Q.** And the “Tumor Volume (mm3) (d30)” value ([1]; HepG-2 nude mice, 25 mg/kg)?
**A.** 1248.33 ± 337.59 mm3

**Q.** What about the “Inhibition Rate (%)” value ([1]; HepG-2 nude mice, 50 mg/kg) of the same compound?
**A.** 57.93%

**Q.** And the “Relative Tumor Proliferation Rate (T/C)” value ([1]; HepG-2 nude mice, 50 mg/kg)?
**A.** 42.12%

**Q.** What about the “Relative Tumor Volume (RTV)” value ([1]; HepG-2 nude mice, 50 mg/kg) of the same compound?
**A.** 7.05 ± 3.35

**Q.** And the “Tumor Weight” value ([1]; HepG-2 nude mice, 50 mg/kg)?
**A.** 1.02 ± 0.45 g

**Q.** And the “Tumor Volume (mm3) (d 1)” value ([1]; HepG-2 nude mice, 50 mg/kg)?
**A.** 122.31 ± 4.68 mm3

**Q.** And the “Tumor Volume (mm3) (d30)” value ([1]; HepG-2 nude mice, 50 mg/kg)?
**A.** 851.37 ± 371.80 mm3

**Q.** What about the “Inhibition Rate (%)” value ([1]; HepG-2 nude mice, 100 mg/kg) of the same compound?
**A.** 68.22%

**Q.** And the “Relative Tumor Proliferation Rate (T/C)” value ([1]; HepG-2 nude mice, 100 mg/kg)?
**A.** 27.49%

**Q.** What about the “Relative Tumor Volume (RTV)” value ([1]; HepG-2 nude mice, 100 mg/kg) of the same compound?
**A.** 4.60 ± 3.39

**Q.** What about the “Tumor Weight” value ([1]; HepG-2 nude mice, 100 mg/kg) of the same compound?
**A.** 0.77 ± 0.44 g

**Q.** What about the “Tumor Volume (mm3) (d 1)” value ([1]; HepG-2 nude mice, 100 mg/kg) of the same compound?
**A.** 110.06 ± 9.58 mm3

**Q.** What about the “Tumor Volume (mm3) (d30)” value ([1]; HepG-2 nude mice, 100 mg/kg) of the same compound?
**A.** 481.16 ± 326.94 mm3

**Q.** And the “mouse weight compared with the model group” value ([1]; mouse, in vivo)?
**A.** no significant changes

**Q.** What about the “Body Weight (g) (d1)” value ([1]; mouse, in vivo, 25 mg/kg) of the same compound?
**A.** 21.36 ± 1.67 g

**Q.** What about the “Body Weight (g) (d30)” value ([1]; mouse, in vivo, 25 mg/kg) of the same compound?
**A.** 23.24 ± 1.33 g

**Q.** And the “Body Weight (g) (d1)” value ([1]; mouse, in vivo, 50 mg/kg)?
**A.** 21.47 ± 1.58 g

**Q.** And the “Body Weight (g) (d30)” value ([1]; mouse, in vivo, 50 mg/kg)?
**A.** 23.64 ± 1.67 g

**Q.** What about the “Body Weight (g) (d1)” value ([1]; mouse, in vivo, 100 mg/kg) of the same compound?
**A.** 21.37 ± 1.36 g

**Q.** What about the “Body Weight (g) (d30)” value ([1]; mouse, in vivo, 100 mg/kg) of the same compound?
**A.** 22.867 ± 1.57 g

**Q.** And the “Relative Tumor Proliferation Rate (T/C)” value [2, 6]?
**A.** 28.11%

**Q.** What about the “tumor growth inhibition rate” value [2, 6] of the same compound?
**A.** 67.49%

**Q.** What about the “Relative Tumor Proliferation Rate (T/C)” value [2, 7] of the same compound?
**A.** 65.45%

**Q.** And the “tumor growth inhibition rate” value [2, 7]?
**A.** 23.88%

**Q.** What about the “tumor volume and relative tumor volume compared with the model group” value ([2]; TPC-1, low, medium and high doses, P<0.05) of the same compound?
**A.** significantly lower

**Q.** And the “Relative Tumor Proliferation Rate (T/C)” value [2, 8]?
**A.** 43.43%

**Q.** And the “tumor growth inhibition rate” value [2, 8]?
**A.** 57.28%

**Q.** And the “Inhibition Rate (%)” value ([2]; dose 25 mg/kg)?
**A.** 23.88%

**Q.** And the “Relative Tumor Proliferation Rate (T/C)” value ([2]; dose 25 mg/kg)?
**A.** 65.45%

**Q.** And the “Relative Tumor Volume (RTV)” value ([2]; dose 25 mg/kg)?
**A.** 10.77 ± 2.47

**Q.** And the “Tumor Weight” value ([2]; dose 25 mg/kg)?
**A.** 1.84 ± 0.25 g

**Q.** And the “Tumor Volume (mm3) (d 1)” value ([2]; dose 25 mg/kg)?
**A.** 115.05 ± 9.93 mm3

**Q.** And the “Tumor Volume (mm3) (d30)” value ([2]; dose 25 mg/kg)?
**A.** 1249.28 ± 337.45 mm3

**Q.** What about the “Inhibition Rate (%)” value ([2]; dose 50 mg/kg) of the same compound?
**A.** 57.28%

**Q.** What about the “Relative Tumor Proliferation Rate (T/C)” value ([2]; dose 50 mg/kg) of the same compound?
**A.** 43.43%

**Q.** What about the “Relative Tumor Volume (RTV)” value ([2]; dose 50 mg/kg) of the same compound?
**A.** 7.15 ± 3.19

**Q.** And the “Tumor Weight” value ([2]; dose 50 mg/kg)?
**A.** 1.03 ± 0.44 g

**Q.** And the “Tumor Volume (mm3) (d 1)” value ([2]; dose 50 mg/kg)?
**A.** 119.45 ± 4.30 mm3

**Q.** And the “Tumor Volume (mm3) (d30)” value ([2]; dose 50 mg/kg)?
**A.** 847.07 ± 356.87 mm3

**Q.** And the “Inhibition Rate (%)” value ([2]; dose 100 mg/kg)?
**A.** 67.49%

**Q.** What about the “Relative Tumor Proliferation Rate (T/C)” value ([2]; dose 100 mg/kg) of the same compound?
**A.** 28.11%

**Q.** What about the “Relative Tumor Volume (RTV)” value ([2]; dose 100 mg/kg) of the same compound?
**A.** 4.63 ± 3.34

**Q.** And the “Tumor Weight” value ([2]; dose 100 mg/kg)?
**A.** 0.79 ± 0.43 g
